Patent US4525348A, “Pranoprofen gelled ointment” (priority 1983, dated 1985)

Key:
[1] = Percutaneous absorption and excretion (Experiment 8); conditions: rat
Excerpt: Male Donryu rats weighing 120-140 g were divided into groups of 4 animals each. The backs of the rats were shaved with an electric clipper and an electric shaver. […] After this application, the test ointment remaining was wiped off at a set time with absorbent cotton moistened with 50% ethanol. The contained ^14 C was eluted with methanol and determined by conventional methods.

[2] = oral administration, as compared with indomethacin or other nonsteroid agents; cited from earlier work

- Half life of disappearance from blood ([1]; absorbed pranoprofen, topical): about 5 hours
- Excretion route ([1]; in vivo): excreted mainly into urine and feces
Structure (SMILES): CC(C(=O)O)c1ccc2c(c1)Cc1cccnc1O2 (stereo not drawn) [pranoprofen]
- Adverse effects such as gastroenteric disorders [2]: very rarely
